{"source": "patent US20100080855A1", "about": "“HEDGEHOG SIGNALING AND CANCER STEM CELLS IN HEMATOPOIETIC CELL MALIGNANCIES” (THE BOARD OF TRUSTEES OF THE LELAND STANFORD JUNIOR …, priority 2008, published 2010)", "test_system": "BCR-ABL1 driven leukemia", "settings": "leukemias of mice treated with 25 mg/kg cyclopamine vs vehicle; flow cytometry lin-GFP+ c-Kit+Sca-1+"}
{"molecule": "CC1=C2C[C@H]3[C@@H](CC=C4C[C@@H](O)CC[C@@]43C)[C@@H]2CC[C@]12O[C@@H]1C[C@H](C)CN[C@H]1[C@H]2C", "note": "[cyclopamine]", "values": [{"measurement": "reduction in the CML stem cell population", "value": "up to a fourteen-fold reduction"}]}
